# Reference: US8067395B2, “Inhibitors of tyrosine kinases and uses thereof” (Pharmacyclics, Inc., priority 2006, dated 2011)
# Molecular target: Btk (Homo sapiens, UniProt Q06187)
# Assay: Btk TR-FRET kinase inhibition assay
# Format: biochemical
# Details: pH 7.4, ATP at the Km for the kinase, 1 μM peptide substrate, [Btk]total=0.5 nM, read-out: Btk-TRFRET (Ki)
# Experimental: Suitable in vitro assays for measuring kinase activity and the inhibition thereof by compounds are known (e.g., see Kuzmic et al. Anal. Biochem. 2000, 286, 45-50).
# The following protocol represents an assay for determination of inhibition of kinases under physiological conditions (pH 7.4). Kinase activity was determined using a time-resolved fluorescence resonance energy transfer (TR-FRET) methodology. Measurements were performed in a reaction volume of 50 μL using 96-well assay plates. Kinase enzyme, inhibitor, ATP (at the Km for the kinase), and 1 μM peptide substrate (Biotin-AVLESEEELYSSARQ-NH2) were incubated in a reaction buffer composed of 20 mM Tris, 50 mM NaCl, MgCl2 (5-25 mM depending on the kinase), 1 mM DTT, 0.1 mM EDTA, 0.01% bovine serum albumin, 0.005% Tween-20, and 10% DMSO at pH 7.4 for one hour. The reaction was quenched by the addition of 1.2 equivalents of EDTA (relative to Mg^2+) in 25 μL of 1× Lance buffer (Perkin-Elmer). Streptavidin-APC (Perkin-Elmer) and Eu-labeled p-Tyr100 antibody (Perkin-Elmer) in 1× Lance buffer were added in a 25 μL volume to give final concentrations of 100 nM and 2.5 nM, respectively, and the mixture was allowed to incubate for one hour. The TR-FRET signal was measured on a multimode plate reader with an excitation wavelength of 330 nm and detection wavelengths of 615 nm and 665 nm. Activity was determined by the ratio of the fluorescence at 665 nm to that at 615 nm. For each compound, enzyme activity was measured at various concentrations of compound. Negative control reactions were performed in the absence of inhibitor in replicates of six, and two no-enzyme controls were used to determine baseline fluorescence levels. Inhibition constants were obtained using the program BatchKi (Kuzmic et al. Anal. Biochem. 2000, 286, 45-50). IC50s were obtained according to this equation: IC50={Ki(app)/(1+[ATP]/Km^ATP)}+[E]total/2; for all kinases, [ATP]=Km^ATP, [Btk]total=0.5 nM and [Lck]total=6 nM.
# Chain of Btk (Q06187 whole entry): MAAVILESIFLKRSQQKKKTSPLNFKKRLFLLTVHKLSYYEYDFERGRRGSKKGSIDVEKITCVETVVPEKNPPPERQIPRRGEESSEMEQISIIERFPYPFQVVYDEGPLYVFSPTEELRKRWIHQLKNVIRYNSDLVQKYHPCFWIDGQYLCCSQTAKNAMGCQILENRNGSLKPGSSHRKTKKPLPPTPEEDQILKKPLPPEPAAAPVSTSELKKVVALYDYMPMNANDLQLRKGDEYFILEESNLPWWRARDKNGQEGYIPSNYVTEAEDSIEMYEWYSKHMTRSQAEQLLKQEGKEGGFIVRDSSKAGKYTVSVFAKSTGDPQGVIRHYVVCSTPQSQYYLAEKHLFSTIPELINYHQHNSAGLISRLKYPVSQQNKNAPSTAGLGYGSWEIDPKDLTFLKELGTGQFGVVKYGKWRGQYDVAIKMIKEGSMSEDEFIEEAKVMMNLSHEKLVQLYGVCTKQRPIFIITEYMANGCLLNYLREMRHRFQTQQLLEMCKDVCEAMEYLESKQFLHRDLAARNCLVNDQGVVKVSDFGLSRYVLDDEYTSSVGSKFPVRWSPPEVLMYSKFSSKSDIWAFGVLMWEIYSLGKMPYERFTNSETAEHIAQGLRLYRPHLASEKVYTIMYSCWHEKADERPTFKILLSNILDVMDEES
row,Compound,Ki
1,"COc1ccc(P2(=O)CCN(CC=Cc3[nH]c(=O)c4c(ccc5nc(Nc6cc(F)ccc6C)n(C)c54)c3C)CC2)cc1 [Compound 11, 2-(3-fluoro-6-methylphenylamino)-1,6-dimethyl-7-[3-(4-oxo-4-(4-methoxyphenyl)-4λ^5-[1,4]azaphosphinan-1-yl)-propenyl]-1,8-dihydro-imidazo[4,5-h]isoquinolin-9-one]",< 100 nM
2,"Cc1cc(F)ccc1Nc1nc2ccc3c(C)c(C=CCN4CCN(Cc5c(Cl)cccc5Cl)CC4)[nH]c(=O)c3c2n1C [Compound 28, 2-(4-fluoro-2-methylphenylamino)-1,6-dimethyl-7-[3-(N-(2,6-dichlorophenylmethyl)-piperazin-1-yl)-propenyl]-1,8-dihydro-imidazo[4,5-h]isoquinolin-9-one]",< 100 nM
